# “And” between values parts separate entries of the source, which are not always exact repeats. Equal entries are not always repeated. “Also recorded” adds a separate entry of the source. Bridge positions count the residues as written; N and C are the ends. Square brackets hold non-standard residues; d marks the D form. Peptide text beside a SMILES is read from it. Hyp = O=C(O)[C@@H]1C[C@@H](O)CN1
# Key:
# [1] = system: primary cultures of cortex; type: cell-based, rat
# [2] = system: cortical cells
# [3] = target: Kv1.4 (Homo sapiens, UniProt P22459); conditions: cited from earlier work
# [4] = system: anesthetized rat; conditions: in vivo, iv
# [5] = system: ventricular myocytes, cortex and trachea; type: cell-based, rat
# [6] = system: isolated rabbit hearts
# [7] = system: primary cultures of cortical neurons; type: cell-based, rat
# [8] = system: cardiac ventricular myocytes; type: cell-based, rat
# [9] = system: primary cultures of cortex
# [10] = system: primary cortical cultures
# [11] = target: T1, Kv1.3 (Homo sapiens, UniProt P22001); conditions: cited from earlier work
# T1 construct: host or cells: oocytes
# [12] = system: New Zealand White rabbits; conditions: rabbit, in vivo
# [13] = system: canine model of AMI; conditions: dog, in vivo
# [14] = system: primary cultures of cortex; type: cell-based, rat; remark: listed apart in the source
# [15] = target: T2, Kv1.1 (Homo sapiens, UniProt Q09470); conditions: cited from earlier work
# T2 construct: host or cells: oocytes
# [16] = target: Shaker H4 potassium channel (Drosophila melanogaster, UniProt P08510); conditions: cited from earlier work
# [17] = system: primary cultures of ventricular myocytes
# [18] = target: F425G Shaker mutation (Drosophila melanogaster, UniProt P08510, F425G); conditions: cited from earlier work
# [19] = system: cardiac myocytes; type: cell-based, rat
# [20] = system: primary cultures of cortex; type: cell-based, rat; remark: listed apart in the source
# T2 sequence (Q09470 whole entry): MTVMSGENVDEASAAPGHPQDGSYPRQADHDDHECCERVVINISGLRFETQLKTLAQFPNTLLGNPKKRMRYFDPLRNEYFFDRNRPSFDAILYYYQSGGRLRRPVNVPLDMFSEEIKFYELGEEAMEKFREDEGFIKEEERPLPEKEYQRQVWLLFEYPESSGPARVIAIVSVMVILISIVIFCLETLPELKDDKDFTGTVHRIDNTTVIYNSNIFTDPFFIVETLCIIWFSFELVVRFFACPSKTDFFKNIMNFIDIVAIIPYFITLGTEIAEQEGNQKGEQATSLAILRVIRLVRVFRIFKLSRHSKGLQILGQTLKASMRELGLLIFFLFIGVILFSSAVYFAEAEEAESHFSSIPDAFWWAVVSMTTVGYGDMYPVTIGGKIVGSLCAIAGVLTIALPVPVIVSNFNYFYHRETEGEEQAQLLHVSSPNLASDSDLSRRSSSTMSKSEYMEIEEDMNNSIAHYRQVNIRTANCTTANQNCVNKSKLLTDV
# Kv1.4, sequence (P22459 whole entry): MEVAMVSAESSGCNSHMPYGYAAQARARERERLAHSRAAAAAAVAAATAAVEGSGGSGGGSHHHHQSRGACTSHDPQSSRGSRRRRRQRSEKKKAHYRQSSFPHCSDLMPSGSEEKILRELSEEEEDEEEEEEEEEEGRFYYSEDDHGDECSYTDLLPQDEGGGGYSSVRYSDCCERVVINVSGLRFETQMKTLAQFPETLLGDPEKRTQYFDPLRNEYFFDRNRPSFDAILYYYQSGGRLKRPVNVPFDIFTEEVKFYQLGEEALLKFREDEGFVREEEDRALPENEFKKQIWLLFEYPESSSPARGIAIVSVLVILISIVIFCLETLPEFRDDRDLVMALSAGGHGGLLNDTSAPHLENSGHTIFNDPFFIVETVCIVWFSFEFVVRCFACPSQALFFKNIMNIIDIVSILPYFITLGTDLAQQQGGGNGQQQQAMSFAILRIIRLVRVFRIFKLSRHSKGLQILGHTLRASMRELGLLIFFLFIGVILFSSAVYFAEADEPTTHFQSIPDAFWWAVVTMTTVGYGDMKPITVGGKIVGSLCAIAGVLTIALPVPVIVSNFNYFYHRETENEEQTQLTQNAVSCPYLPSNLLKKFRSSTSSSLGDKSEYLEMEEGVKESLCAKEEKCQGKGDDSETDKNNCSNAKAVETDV
# T1 sequence (P22001 whole entry): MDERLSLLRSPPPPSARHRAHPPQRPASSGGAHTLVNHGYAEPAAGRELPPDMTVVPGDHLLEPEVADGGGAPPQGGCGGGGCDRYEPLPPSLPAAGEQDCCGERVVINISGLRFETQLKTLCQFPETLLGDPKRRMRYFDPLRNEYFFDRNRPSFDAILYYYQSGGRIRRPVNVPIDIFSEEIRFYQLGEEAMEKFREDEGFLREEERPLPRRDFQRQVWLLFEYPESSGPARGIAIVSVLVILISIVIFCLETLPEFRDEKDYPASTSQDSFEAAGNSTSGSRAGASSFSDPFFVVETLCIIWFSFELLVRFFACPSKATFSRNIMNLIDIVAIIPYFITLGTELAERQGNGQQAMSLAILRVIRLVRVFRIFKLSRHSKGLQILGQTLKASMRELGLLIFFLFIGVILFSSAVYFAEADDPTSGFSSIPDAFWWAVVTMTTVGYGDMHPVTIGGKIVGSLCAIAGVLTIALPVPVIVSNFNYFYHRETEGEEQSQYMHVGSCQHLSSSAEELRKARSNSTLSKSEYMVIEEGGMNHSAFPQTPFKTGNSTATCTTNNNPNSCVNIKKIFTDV
# F425G Shaker mutation, sequence (P08510 whole entry F425G): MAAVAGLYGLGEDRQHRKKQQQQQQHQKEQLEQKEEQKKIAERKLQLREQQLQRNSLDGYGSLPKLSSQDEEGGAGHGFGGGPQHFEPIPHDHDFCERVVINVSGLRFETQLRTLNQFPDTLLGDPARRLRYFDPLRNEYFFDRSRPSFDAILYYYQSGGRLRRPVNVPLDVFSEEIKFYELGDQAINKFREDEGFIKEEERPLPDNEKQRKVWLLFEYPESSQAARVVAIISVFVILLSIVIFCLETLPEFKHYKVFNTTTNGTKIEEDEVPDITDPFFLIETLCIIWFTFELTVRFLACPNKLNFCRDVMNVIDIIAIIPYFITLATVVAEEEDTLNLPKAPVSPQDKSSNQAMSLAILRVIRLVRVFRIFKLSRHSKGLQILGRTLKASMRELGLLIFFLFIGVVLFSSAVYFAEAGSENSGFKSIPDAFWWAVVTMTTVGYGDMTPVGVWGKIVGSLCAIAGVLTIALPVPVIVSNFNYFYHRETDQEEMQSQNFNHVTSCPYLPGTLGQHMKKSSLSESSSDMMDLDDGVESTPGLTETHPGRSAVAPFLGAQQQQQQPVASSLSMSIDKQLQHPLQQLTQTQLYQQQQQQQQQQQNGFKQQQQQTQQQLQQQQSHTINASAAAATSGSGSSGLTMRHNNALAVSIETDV
# Shaker H4 potassium channel, sequence (P08510 whole entry): as the sequence (P08510 whole entry F425G) above, with G425F counted along it
structure (smiles),measurement,setting,value
"CC[C@H](C)[C@@H]1NC(=O)[C@H](CCCNC(=N)N)NC(=O)[C@@H](N)CSSC[C@@H]2NC(=O)[C@@H]3CSSC[C@@H](C(=O)N[C@H](C(=O)O)C(C)C)NC(=O)[C@H](CCCCN)NC(=O)[C@H](CC(N)=O)NC(=O)[C@H](Cc4ccccc4)NC(=O)[C@H](CCCNC(=N)N)NC(=O)[C@H](CC(N)=O)NC(=O)[C@H](CSSC[C@H](NC(=O)[C@H](CCCCN)NC(=O)[C@H](CCC(N)=O)NC(=O)[C@H](CC(N)=O)NC(=O)[C@@H]4C[C@@H](O)CN4C1=O)C(=O)N[C@@H](Cc1ccccc1)C(=O)N[C@@H](CCC(N)=O)C(=O)N[C@@H](Cc1c[nH]cn1)C(=O)N[C@@H](CC(C)C)C(=O)N[C@@H](CC(=O)O)C(=O)N[C@@H](CC(=O)O)C(=O)N3)NC(=O)[C@H](CCCCN)NC(=O)[C@H](CCCNC(=N)N)NC(=O)[C@H](CO)NC2=O [κ-PVIIA, Cys-Xaa1-Ile-Xaa2-Asn-Gln-Xaa3-Cys-Xaa4-Gln-Xaa5-Leu-Asp-Asp-Cys-Cys-Ser-Xaa1-Xaa3-Cys-Asn-Xaa1-Xaa4-Asn-Xaa3-Cys-Val] (H-CRI[Hyp]NQKCFQHLDDCCSRKCNRFNKCV-OH; disulfide 1-16, 8-20, 15-26)",current corrected for cell capacitance,[1],2.4±0.7 pA/pf
same,current evoked by κ-PVIIA,[1],26.2±6.2 pA
same,reversal of κ-PVIIA-induced inward current,[1],~−20 mV
same,sensitivity of evoked currents to KATP antagonists,[1],sensitive
same,degree of glutamate-induced excitotoxicity (delayed cellular death),[2],effectively reduces the degree of glutamate-induced excitotoxicity in a dose-dependant manner
same,protection against delayed cytotoxic effects of glutamate,[2],very effective protection
same,activity on Kv1.4,[3],no detectable activity
same,effect on blood pressure,[4],no effect
same,effect on heart rate,[4],no effect
same,protection against hypoxia-induced changes in intracellular calcium,[5],able to provide protection against hypoxia
same,effect on infarct size,[6],reduced the infarct size; also recorded: no effect
same,change in intracellular calcium (Fluo-3 fluorescence),[7],−2.15±0.95% and −8.8±3.9%
same,protection against hypoxia-induced depolarization,[8],prevented any hypoxia-induced changes in membrane potential; also recorded: protective effect
same,"protective effect against hypoxia induced depolarization (initial screen, Example 10)",[8],strong protective effect
same,EC50,[9],0.0008 pM
same,protease activity (cytotoxicity),[10],no detectable protease activity
same,effects on Kv1.3,[11],no effects
same,hemodynamic effect,[12],without any hemodynamic effect
same,lowest effective dose,[12],10 µg/kg
same,"infarct size as % of risk zone, protection",[12]; iv,equally as protective
same,drop in blood pressure normally seen upon reperfusion,[13],prevented the drop in blood pressure
same,lowest effective dose,[13],100 µg/kg
same,effect on infarct size,[13]; iv,No significant effect
same,reduction of infarct size,[13]; iv,approximately 60%
same,intracellular K+ concentration (PBFI fluorescence),[14],reduction
same,activity on Kv1.1,[15],no effects; also recorded: no detectable activity
same,block of the Drosophila H4 shaker K+ channel,[16],block
same,EC50,[17],0.0009 pM
same,effect of F425G Shaker mutation on κ-PVIIA sensitivity,[18],abolishes
same,current corrected for cell capacitance,[19],4.6±0.4 pA/pf
same,current evoked by κ-PVIIA,[19],87.7±5.9 pA
same,experimentally determined Ek (reversal potential of evoked current),[19],−23 mV
same,reversal of κ-PVIIA-induced inward current,[19],~−20 mV
same,sensitivity of evoked currents to KATP antagonists,[19],sensitive
same,initial glutamate-induced depolarization,[20],prevents the initial glutamate-induced depolarization

# Source: patent US20060257843A1 (priority 2002, published 2006)
